pEC50: −log10 of the molar value. Peptide text beside a SMILES is read from it.
Target: Substance-P receptor (Rana catesbeiana)
Assay: SP-induced [Ca2+] mobilization in CHO cells expressing bullfrog Tachykinin receptor 1

Question: With CC[C@H](C)[C@H](NC(=O)[C@H](Cc1ccccc1)NC(=O)[C@H](CO)NC(=O)[C@H](C)NC(=O)[C@@H]1CCCN1C(=O)[C@H](CC(N)=O)NC(=O)[C@@H](N)Cc1cnc[nH]1)C(=O)NCC(=O)N[C@@H](CC(C)C)C(=O)N[C@@H](CCSC)C(N)=O (H-HNPASFIGLM-NH2) as the compound, how does the pEC50 read?
Answer: 7.85

Question: CSCC[C@H](NC(=O)[C@H](CC(C)C)NC(=O)CNC(=O)[C@H](Cc1ccc(O)cc1)NC(=O)[C@H](Cc1ccccc1)NC(=O)[C@H](CO)NC(=O)[C@H](CC(=O)O)NC(=O)[C@H](CO)NC(=O)[C@H](CCCCN)NC(=O)[C@@H](N)Cc1ccc(O)cc1)C(N)=O (H-YKSDSFYGLM-NH2) was tested. Which pEC50 did it give?
Answer: 7.85

Question: CSCC[C@H](NC(=O)[C@H](CC(C)C)NC(=O)CNC(=O)[C@H](Cc1ccc(O)cc1)NC(=O)[C@H](Cc1ccccc1)NC(=O)[C@H](CCCNC(=N)N)NC(=O)[C@H](CC(=O)O)NC(=O)[C@@H]1CCCN1C(=O)[C@H](CO)NC(=O)[C@@H]1CCCN1C(=O)[C@@H](N)CCCCN)C(N)=O (H-KPSPDRFYGLM-NH2) was tested. Which pEC50 did it give?
Answer: 9.22

Source: ChEMBL document CHEMBL1132929 (J Med Chem, 2000)
